Assays:
MDA-MB-231 cells [1] = assay: Cell proliferation, Casy cell counting, MDA-MB-231; assay type: cell-based, human; settings: 0–100 nM, 48 h, hormone-deprived
Method: (§1) MDA-MB-231 and MCF-7 breast cancer cells were purchased from the American Type Culture Collection (ATCC; Manassas, VA, United States) and routinely cultivated at 37°C (95% humidity and 5% CO2) in phenolred-free Dulbecco’s modified Eagle medium F-12 (DMEM/F-12), fortified with 1% PenStrep®-solution and 10% fetal bovine serum (Invitrogen; Thermo Fisher Scientific, Inc., Waltham, MA, United States). All experiments were performed during the exponential growth phase of both cell lines. For the experiments, cells were seeded in 6-well-plates at a density of 1.0 × 10^6 cells per well and allowed to attach for 24 h.
(§2) Prior to cell counting with a Casy® TT Cell Counter (OLS OMNI Life Science, Bremen, Germany), the supernatant medium was removed and cells were detached using 400 μl TrypLe® solution (Invitrogen). All experiments were performed in triplicate, and the data were reported as the means ± standard deviation of all values.

MCF-7 cells [2] = assay: Cell proliferation, Casy cell counting, MCF-7; assay type: cell-based, human; settings: 48 h; for cell number: 100 nM hormone precursor
Method: as §1, §2

MCF-7 cells [3] = settings: for decrease of native hormone precursor: MCF-7, 100 nM, 48 h
Method: (§3) Briefly, cartridges were preconditioned with 2 × 1.0 ml acetonitrile and 3 × 1.0 ml ammonium acetate buffer (10 mM, pH = 5.0), and the samples were loaded onto the columns. After washing with 1 × 1.0 ml ammonium acetate buffer (10 mM, pH = 5.0) and 2 × 1.0 ml acetonitrile/ammonium acetate buffer (10 mM, pH 5.0) 10:90 (v/v), the analytes were eluted using 2 × 650 μl acetonitrile/ammonium acetate buffer (10 mM, pH = 5.0) 95:5 (v/v) and evaporated until dry. Subsequently, samples were reconstituted in 270 μl acetonitrile/ammonium acetate buffer (10 mM, pH = 5.0) 25:75 (v/v) and stored at -80°C until further LC–HRMS analysis.
(§4) After media collection, cell monolayers were washed five times with 2.0 ml DPBS, detached using 400 μl TrypLE® solution (37°C, 5 min), mixed with 600 μl DPBS and transferred into sample vials. Aliquots of these suspensions (100 μl each) were diluted and counted using the Casy® TT Cell Counter to determine the exact number of cells per sample well. The remaining cell suspensions (900 μl each) were gently centrifuged (1000 rpm, 8 min), and the supernatants were discarded. The cell pellets were subsequently resuspended in 100 μl aqueous ammonium acetate buffer (10 mM, pH = 5.0) and lysed by five freeze-thaw-cycles in liquid nitrogen (3 min each), followed by thawing at ambient temperature. Ammonium acetate buffer (1000 μl) was added, and the suspensions were centrifuged (14000 rpm, 5 min). Subsequently, the supernatants were concentrated using the same SPE protocol as described above. All processed samples were then stored at -80°C until further LC–HRMS analysis. For each condition, three biologically independent experiments were performed; the reported values represent the overall means ± SD of all values.
(§5) LC was performed with an UltiMate 3000 RSLC-series system coupled to a maXis HD ESI-Qq-TOF mass spectrometer (Bruker Corporation, Bremen, Germany). A Phenomenex Luna® 3 μm C18(2) 100 Å LC column (250 mm × 4.6 mm I.D.; Phenomenex, Inc., Torrance, CA, United States), preceded by a Hypersil® BDS-C18 guard column (5 μm, 10 mm × 4.6 mm I.D.; Thermo Fisher Scientific, Inc.) was used for the separation of the analytes at a flow rate of 1.0 ml/min and a temperature of 43°C. […] The ESI ion source settings were as follows: capillary voltage: -4.5 kV; dry gas flow rate: 8.0 l/min N2; nebulizer: 1.0 bar N2; and dry temperature: 200°C. The ion transfer parameters were set to 400 Vpp funnel RF and 300 Vpp multipole RF, the quadrupole ion energy was 8.0 eV, and the collision cell parameters were as follows: collision RF, 1100 Vpp; collision energy, 10.0 eV; transfer time, 38 μs; and pre-pulse storage, 18 μs. In the range of m/z 150–500, full-scan mass spectra were recorded.
(§6) The modes of inhibition were subsequently determined from Lineweaver–Burk plots, and the corresponding Ki values were calculated from Dixon plots using GraphPad Prism 6.0.

MDA-MB-231 cells [4] = settings: for decrease of native hormone precursor: MDA-MB-231, 100 nM, 48 h
Method: as §3, §4, §5, §6

MDA-MB-231 cells [5] = assay: Metabolism of RES in MDA-MB-231 cells (HPLC)
Method: (§7) After 48 h, the cellular media (100 μl) were mixed with 200 μl ice-cold (-20°C) methanol and subsequently centrifuged (14000 rpm, 5 min). The clear supernatants were then diluted 1:1 with aqueous ammonium acetate buffer (5 mM, pH = 7.4), and 80 μl of the samples were injected onto the HPLC column. […] Calibration of the chromatogram was accomplished using the external standard method.
as §6

MCF-7 cells [6] = assay: Metabolism of RES in MCF-7 cells (HPLC)
Method: as §7, §6

[7] = 0.5–5.0 g/day RES for up to 29 days, healthy subjects; ref Brown et al., 2010; cited from earlier work

With C[C@]12CC[C@H](O)CC1=CC[C@@H]1[C@@H]2CC[C@]2(C)C(=O)CC[C@@H]12 [DHEA, dehydroepiandrosterone] the “effect of hormone precursor on cell growth” value (MDA-MB-231 cells [1]) was “did not further increase cell growth”, the cell number (MCF-7 cells [2]) was 2.69 ± 0.24 × 10^6 cells and the “decrease of native hormone precursor” value (MCF-7 cells [3]) was 54.9%. The “remaining precursor concentration in the medium” value (MCF-7 cells [3]; MCF-7, from 100.0 nM, after 48 h) was 45.1 ± 1.8 nM, the “decrease of native hormone precursor” value (MDA-MB-231 cells [4]) was 26.8% and the “remaining precursor concentration in the medium” value (MDA-MB-231 cells [4]; MDA-MB-231, from 100 nM, after 48 h) was 73.2 ± 2.5 nM.

For C[C@]12CC[C@@H]3c4ccc(O)cc4CC[C@H]3[C@@H]1CCC2=O [E1, estrone], the “effect of hormone precursor on cell growth” value (MDA-MB-231 cells [1]) was “did not further increase cell growth”, the cell number (MCF-7 cells [2]) was 3.85 ± 0.36 × 10^6 cells and the stimulation of proliferation (MCF-7 cells [2]; 100 nM) was 59.8%. For the same molecule, the “decrease of native hormone precursor” value (MCF-7 cells [3]) was 12.9% and the “decrease of native hormone precursor” value (MDA-MB-231 cells [4]) was 12.3%.

In the case of O=S(=O)(O)Oc1cc(O)cc(/C=C/c2ccc(O)cc2)c1 [RES-3S, trans-resveratrol-3-O-sulfate], the “maximum metabolite formation rate” value (MDA-MB-231 cells [5]; 25 μM RES, 48 h) is reported as 2.28 ± 0.33 pmol/10^6 cells/h, the Vmax (MDA-MB-231 cells [5]; MDA-MB-231, Michaelis–Menten model) is reported as 3.25 ± 0.44 pmol/10^6 cells/h and the Vmax (MDA-MB-231 cells [5]; MDA-MB-231, substrate inhibition model) is reported as 4.31 ± 0.97 pmol/10^6 cells/h. For the same molecule, the “fold increase of metabolite formation in MCF-7 compared with MDA-MB-231” value (MCF-7 cells [6]) was 150 fold, the “mean maximum formation rate” value (MCF-7 cells [6]; MCF-7, 48 h) was 340.1 ± 49.4 pmol/10^6 cells/h and the Vmax (MCF-7 cells [6]; MCF-7, Michaelis–Menten model) was 468.4 ± 9.9 pmol/10^6 cells/h. For the same molecule, the Vmax (MCF-7 cells [6]; MCF-7, substrate inhibition model) was 501.4 ± 17.1 pmol/10^6 cells/h, the “reduction in metabolite formation” value (MCF-7 cells [6]; RES up to 100 μM, substrate inhibition) was 43.2% and the “levels of metabolite relative to RES” value [7] was “approximately 10 fold”.

With O=C(O)C1OC(Oc2ccc(C=Cc3cc(O)cc(O)c3)cc2)C(O)C(O)C1O [RES-4G, trans-resveratrol-4′-O-(β-D-glucuronide)] the “formation of RES metabolite” value (MDA-MB-231 cells [5]; RES 0–100 μM, 48 h) was “below the detection limit” and the “formation of RES metabolite” value (MCF-7 cells [6]; RES 0–100 μM, 48 h) was “below the detection limit”.
